According to the supplement of paper PMC5908809:

Assays:
YT (IL-2 2.5 ng/mL) [1] = experiment: drug sensitivity score (DSS) (DSS units); higher = more sensitive; extreme values may be limits of the assay; settings: 72 h
[2] = system: normal primary NK cells, pool 1 (3 donors) (IL-2 2.5 ng/mL); experiment: as above; settings: 72 h
DERL-7 (IL-2 2.5 ng/mL) [3] = experiment: as above; settings: 72 h
[4] = system: normal primary NK cells, pool 3 (3 donors) (IL-2 2.5 ng/mL); experiment: as above; settings: 72 h
IMC-1 (IL-2 20 ng/mL) [5] = experiment: as above; settings: 72 h
[6] = system: normal primary NK cells, pool 2 (3 donors) (IL-2 2.5 ng/mL); experiment: as above; settings: 72 h
KAI3 (IL-2 2.5 ng/mL) [7] = experiment: as above; settings: 72 h
NK-92 (IL-2 2.5 ng/mL) [8] = experiment: as above; settings: 72 h
NKL (IL-2 2.5 ng/mL) [9] = experiment: as above; settings: 72 h
[10] = system: normal primary NK cells, pool 1 (3 donors), resting (IL-2 0 ng/mL); experiment: as above; settings: 72 h
SNK-6 (IL-2 2.5 ng/mL) [11] = experiment: as above; settings: 72 h
KHYG-1 (IL-2 2.5 ng/mL) [12] = experiment: as above; settings: 72 h
NK-YS (IL-2 2.5 ng/mL) [13] = experiment: as above; settings: 72 h
YT (IL-2 2.5 ng/mL) [14] = experiment: percent inhibition of viability; higher = more inhibition; settings: 72 h
[15] = system: normal primary NK cells, pool 1 (3 donors) (IL-2 2.5 ng/mL); experiment: as above; settings: 72 h
DERL-7 (IL-2 2.5 ng/mL) [16] = experiment: as above; settings: 72 h
[17] = system: normal primary NK cells, pool 3 (3 donors) (IL-2 2.5 ng/mL); experiment: as above; settings: 72 h
IMC-1 (IL-2 20 ng/mL) [18] = experiment: as above; settings: 72 h
[19] = system: normal primary NK cells, pool 2 (3 donors) (IL-2 2.5 ng/mL); experiment: as above; settings: 72 h
KAI3 (IL-2 2.5 ng/mL) [20] = experiment: as above; settings: 72 h
NK-92 (IL-2 2.5 ng/mL) [21] = experiment: as above; settings: 72 h
NKL (IL-2 2.5 ng/mL) [22] = experiment: as above; settings: 72 h
[23] = system: normal primary NK cells, pool 1 (3 donors), resting (IL-2 0 ng/mL); experiment: as above; settings: 72 h
SNK-6 (IL-2 2.5 ng/mL) [24] = experiment: as above; settings: 72 h
KHYG-1 (IL-2 2.5 ng/mL) [25] = experiment: as above; settings: 72 h
NK-YS (IL-2 2.5 ng/mL) [26] = experiment: as above; settings: 72 h
[27] = system: normal NK cells expanded with K562-aAPC; experiment: as above; settings: 72 h, IL-2 2.5 ng/mL
Method: (§1)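 Drug sensitivity and resistance testing on K562-aAPC-expanded normal NK cells: 5 concentrations (10-fold steps over a 10,000-fold range), 72 h at 37 °C, viability by CellTiter-Glo normalised to DMSO and benzethonium chloride controls; DSS from the fitted curve.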

[28] = system: normal NK cells expanded with K562-aAPC; experiment: drug sensitivity score (DSS) (DSS units); higher = more sensitive; extreme values may be limits of the assay; settings: 72 h; IL-2 2.5 ng/mL
Method: as §1

O=C(c1ccc(C(=O)N2CCC(N3CCCC3)CC2)c(Nc2ccccc2)c1)N1CCC(N2CCCC2)CC1 [UNC1215] (max concentration tested 30000 nM)
Settings | drug sensitivity score
DERL-7 (IL-2 2.5 ng/mL) [3] | 0
IMC-1 (IL-2 20 ng/mL) [5] | 0.31
KAI3 (IL-2 2.5 ng/mL) [7] | 0.59
KHYG-1 (IL-2 2.5 ng/mL) [12] | 0.12
NK-92 (IL-2 2.5 ng/mL) [8] | 0.29
NK-YS (IL-2 2.5 ng/mL) [13] | 0.25
NKL (IL-2 2.5 ng/mL) [9] | 0
SNK-6 (IL-2 2.5 ng/mL) [11] | 0
YT (IL-2 2.5 ng/mL) [1] | 0
[2] | 0
[4] | 0.52
[6] | 0.28
[10] | 0
[28] | 0

percent inhibition of viability [%]
Settings | 3 nM | 30 nM | 300 nM | 3000 nM | 30000 nM
DERL-7 (IL-2 2.5 ng/mL) [16] | -1.53 | 0.01 | 3.61 | 7.89 | 3.14
IMC-1 (IL-2 20 ng/mL) [18] | -3.72 | -5.44 | 3.3 | 4.34 | 14.3
KAI3 (IL-2 2.5 ng/mL) [20] | 1.7 | 4.58 | 5.63 | 3.2 | 16.4
KHYG-1 (IL-2 2.5 ng/mL) [25] | -1.52 | -1.25 | -0.64 | 3.44 | 11.4
NK-92 (IL-2 2.5 ng/mL) [21] | -15.1 | -6.53 | 5.43 | 7.05 | 13.6
NK-YS (IL-2 2.5 ng/mL) [26] | -2.93 | -6.82 | 1.29 | 4.26 | 12.9
NKL (IL-2 2.5 ng/mL) [22] | -7.8 | -11.1 | -0.61 | -5.87 | 10.9
SNK-6 (IL-2 2.5 ng/mL) [24] | -4.87 | -19.4 | 0.88 | -4.07 | -10.5
YT (IL-2 2.5 ng/mL) [14] | -2.24 | -2.54 | -0.78 | 1.55 | 4.57
[15] | -4.87 | 7.23 | -8 | 1.14 | -2.52
[17] | -6.54 | -6.05 | -0.93 | 8.8 | 12.9
[19] | -8.79 | -4.27 | -3.06 | 7.44 | 11.8
[23] | -4.97 | 4.4 | -12.3 | -0.15 | -14.2
[27] | 3.82 | 0.21 | 4.98 | 5.27 | 6.03
